# Results from patent US20240066027A1 (DOMAIN THERAPEUTICS, priority 2020, published 2024).
# Target: T1, human PAR-2 (hPAR-2) receptor expressed in HEK-293 T cells in an endogenous manner (Homo sapiens, UniProt P55085)
# T1 construct: human PAR-2 (hPAR-2) receptor expressed in HEK-293 T cells in an endogenous manner; endogenous in cells; host or cells: HEK-293 T cells
# T1 sequence (P55085 26-397): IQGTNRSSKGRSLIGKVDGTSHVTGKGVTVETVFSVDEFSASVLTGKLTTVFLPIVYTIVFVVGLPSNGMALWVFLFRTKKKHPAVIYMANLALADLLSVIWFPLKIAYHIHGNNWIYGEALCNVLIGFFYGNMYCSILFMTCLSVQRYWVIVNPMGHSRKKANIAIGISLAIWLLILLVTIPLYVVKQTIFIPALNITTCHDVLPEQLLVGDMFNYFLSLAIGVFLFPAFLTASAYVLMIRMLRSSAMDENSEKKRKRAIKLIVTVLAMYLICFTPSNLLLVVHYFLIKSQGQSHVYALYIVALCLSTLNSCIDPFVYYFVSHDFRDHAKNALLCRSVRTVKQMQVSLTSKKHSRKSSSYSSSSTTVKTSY
# Test: In vitro human PAR-2 functional antagonist activity using calcium assays (Fluo4AM, FLIPR Tetra)
# Type: cell-based
# Settings: HEK-293 T cells stimulated by an EC80 of the 2-Furoyl-LIGRLO-NH2 peptide after 10 min incubation with compound; 20 concentrations, duplicate, two independent experiments
# Summary of the method: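 Antagonist activity was taken as the decrease in the calcium response to an EC80 of 2-Furoyl-LIGRLO-NH2, measured over 5 min. The agonist was added after a 10 min compound-alone step on the same plate. The HEK-293 T cells express PAR-2 endogenously and were loaded with 1 μM Fluo4AM. Signals were referenced to buffer and EC80-alone controls.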
row,SMILES,IC50 [nM]
1,"COCC(C)(C)n1cc(-c2ccc(Cl)c(F)c2)c2ccc(C(=O)N3CCN(c4cc(C)c(C(=O)O)c(C)n4)CC3(C)C)nc21 [Example 152, 6-(4-(3-(4-chloro-3-fluorophenyl)-1-(1-methoxy-2-methylpropan-2-yl)-1H-pyrrolo[2,3-b]pyridine-6-carbonyl)-3,3-dimethylpiperazin-1-yl)-2,4-dimethylnicotinic acid]",< 20
2,"Cc1cc(N[C@@H]2CCN(C(=O)c3ccc4c(-c5ccc(Cl)c(F)c5)cn(C(C)(C)C)c4n3)C2)nc(C)c1C(=O)O [Example 153, (R)-6-((1-(1-(tert-butyl)-3-(4-chloro-3-fluorophenyl)-1H-pyrrolo[2,3-b]pyridine-6-carbonyl)pyrrolidin-3-yl)amino)-2,4-dimethylnicotinic acid]",> 10000
3,"Cc1cc(N[C@H]2CCN(C(=O)c3ccc4c(-c5ccc(Cl)c(F)c5)cn(C(C)(C)C)c4n3)C2)nc(C)c1C(=O)O [Example 154, (S)-6-((1-(1-(tert-butyl)-3-(4-chloro-3-fluorophenyl)-1H-pyrrolo[2,3-b]pyridine-6-carbonyl)pyrrolidin-3-yl)amino)-2,4-dimethylnicotinic acid]",> 10000
4,"Cc1cc(N(C)[C@@H]2CCN(C(=O)c3ccc4c(-c5ccc(Cl)c(F)c5)cn(C(C)(C)C)c4n3)C2)nc(C)c1C(=O)O [Example 155, (R)-6-((1-(1-(tert-butyl)-3-(4-chloro-3-fluorophenyl)-1H-pyrrolo[2,3-b]pyridine-6-carbonyl)pyrrolidin-3-yl)(methyl)amino)-2,4-dimethylnicotinic acid]",20 to 10000
5,"Cc1cc(N(C)[C@H]2CCN(C(=O)c3ccc4c(-c5ccc(Cl)c(F)c5)cn(C(C)(C)C)c4n3)C2)nc(C)c1C(=O)O [Example 156, (S)-6-((1-(1-(tert-butyl)-3-(4-chloro-3-fluorophenyl)-1H-pyrrolo[2,3-b]pyridine-6-carbonyl)pyrrolidin-3-yl)(methyl)amino)-2,4-dimethylnicotinic acid]",20 to 10000
6,"Cc1cc(N2CCN(C(=O)c3ccc4c(-c5ccc(Cl)c(F)c5)cn(C(C)(C)C)c4n3)CC2CO)nc(C)c1C(=O)O (stereo not shown) [Example 157, 6-(4-(1-(tert-butyl)-3-(4-chloro-3-fluorophenyl)-1H-pyrrolo[2,3-b]pyridine-6-carbonyl)-2-(hydroxymethyl)piperazin-1-yl)-2,4-dimethylnicotinic acid]",20 to 10000
7,"Cc1cc(N2CCN(C(=O)c3ccc4c(-c5ccc(Cl)c(F)c5)cn(Cc5ncccn5)c4n3)C(C)(C)C2)nc(C)c1C(=O)O [Example 158, 6-(4-(3-(4-chloro-3-fluorophenyl)-1-(pyrimidin-2-ylmethyl)-1H-pyrrolo[2,3-b]pyridine-6-carbonyl)-3,3-dimethylpiperazin-1-yl)-2,4-dimethylnicotinic acid]",20 to 10000
8,"Cc1nc(Cn2cc(-c3ccc(Cl)c(F)c3)c3ccc(C(=O)N4CCN(c5cc(C)c(C(=O)O)c(C)n5)CC4(C)C)nc32)c(C)o1 [Example 159, 6-(4-(3-(4-chloro-3-fluorophenyl)-1-((2,5-dimethyloxazol-4-yl)methyl)-1H-pyrrolo[2,3-b]pyridine-6-carbonyl)-3,3-dimethylpiperazin-1-yl)-2,4-dimethylnicotinic acid]",20 to 10000
9,"Cc1cc(N2CCN(C(=O)c3ccc4c(-c5ccc(Cl)c(F)c5)cn(CC5CC5)c4n3)C(C)(C)C2)nc(C)c1C(=O)O [Example 160, 6-(4-(3-(4-chloro-3-fluorophenyl)-1-(cyclopropylmethyl)-1H-pyrrolo[2,3-b]pyridine-6-carbonyl)-3,3-dimethylpiperazin-1-yl)-2,4-dimethylnicotinic acid]",< 20
10,"COc1cccc(Cn2cc(-c3ccc(Cl)c(F)c3)c3ccc(C(=O)N4CCN(c5cc(C)c(C(=O)O)c(C)n5)CC4(C)C)nc32)n1 [Example 161, 6-(4-(3-(4-chloro-3-fluorophenyl)-1-((6-methoxypyridin-2-yl)methyl)-1H-pyrrolo[2,3-b]pyridine-6-carbonyl)-3,3-dimethylpiperazin-1-yl)-2,4-dimethylnicotinic acid]",< 20
11,"CC(C)(C)n1cc(-c2ccc(Cl)c(F)c2)c2ccc(C(=O)N3CCC(C(=O)O)CC3)nc21 [Example 162, 1-(1-(tert-butyl)-3-(4-chloro-3-fluorophenyl)-1H-pyrrolo[2,3-b]pyridine-6-carbonyl)piperidine-4-carboxylic acid]",20 to 10000
12,"CC(C)(C)n1cc(-c2ccc(Cl)c(F)c2)c2ccc(C(=O)N3CCC(CC(N)=O)CC3)nc21 [Example 163, 2-(1-(1-(tert-butyl)-3-(4-chloro-3-fluorophenyl)-1H-pyrrolo[2,3-b]pyridine-6-carbonyl)piperidin-4-yl)acetamide]",20 to 10000
13,"CN(C)C(=O)CC1CCN(C(=O)c2ccc3c(-c4ccc(Cl)c(F)c4)cn(C(C)(C)C)c3n2)CC1 [Example 164, 2-(1-(1-(tert-butyl)-3-(4-chloro-3-fluorophenyl)-1H-pyrrolo[2,3-b]pyridine-6-carbonyl)piperidin-4-yl)-N,N-dimethylacetamide]",20 to 10000
14,"CC[C@@H](C)n1cc(-c2ccc(Cl)c(F)c2)c2ccc(C(=O)N3CCN(c4cc(C)c(C(=O)O)c(C)n4)CC3(C)C)nc21 [Example 165, (R)-6-(4-(1-(sec-butyl)-3-(4-chloro-3-fluorophenyl)-1H-pyrrolo[2,3-b]pyridine-6-carbonyl)-3,3-dimethylpiperazin-1-yl)-2,4-dimethylnicotinic acid]",< 20
15,"COCC(COC)n1cc(-c2ccc(Cl)c(F)c2)c2ccc(C(=O)N3CCN(c4cc(C)c(C(=O)O)c(C)n4)CC3(C)C)nc21 [Example 166, 6-(4-(3-(4-chloro-3-fluorophenyl)-1-(1,3-dimethoxypropan-2-yl)-1H-pyrrolo[2,3-b]pyridine-6-carbonyl)-3,3-dimethylpiperazin-1-yl)-2,4-dimethylnicotinic acid]",< 20
16,"Cc1cc(C2=CCN(C(=O)c3ccc4c(-c5ccc(Cl)c(F)c5)cn(C(C)(C)C)c4n3)CC2)nc(C)c1C(=O)O [Example 167, 1′-(1-(tert-butyl)-3-(4-chloro-3-fluorophenyl)-1H-pyrrolo[2,3-b]pyridine-6-carbonyl)-4,6-dimethyl-1′,2′,3′,6′-tetrahydro-[2,4′-bipyridine]-5-carboxylic acid]",20 to 10000
17,"Cc1cc(C2CCN(C(=O)c3ccc4c(-c5ccc(Cl)c(F)c5)cn(C(C)(C)C)c4n3)CC2)nc(C)c1C(=O)O [Example 168, 6-(1-(1-(tert-butyl)-3-(4-chloro-3-fluorophenyl)-1H-pyrrolo[2,3-b]pyridine-6-carbonyl)piperidin-4-yl)-2,4-dimethylnicotinic acid]",20 to 10000
18,"CC1(C)CN(C(=O)c2ccc(C(=O)O)cn2)CCN1C(=O)c1ccc2c(-c3ccc(Cl)c(F)c3)cn(C(C)(C)C)c2n1 [Example 169, 6-(4-(1-(tert-butyl)-3-(4-chloro-3-fluorophenyl)-1H-pyrrolo[2,3-b]pyridine-6-carbonyl)-3,3-dimethylpiperazine-1-carbonyl)nicotinic acid]",20 to 10000
19,"Cc1cc(N2CCN(C(=O)c3ccc4c(-c5ccc(C(F)(F)F)nc5)cn(CC(C)C)c4n3)C(C)(C)C2)nc(C)c1C(=O)O [Example 170, 6-(4-(1-isobutyl-3-(6-(trifluoromethyl)pyridin-3-yl)-1H-pyrrolo[2,3-b]pyridine-6-carbonyl)-3,3-dimethylpiperazin-1-yl)-2,4-dimethylnicotinic acid]",20 to 10000
